According to patent US20140045746A1 (Merck Sharp & Dohme Corp., priority 2012, published 2014):
pEC50, pKi: −log10 of the molar value. In brackets after ≈: the same amount, converted by molar mass.

Assays:
Solubility in PBS pH 7 = assay type: physicochemical; details: aqueous buffer; pH 7, PBS
hGPR40 [1] = target: T1, hGPR40 (Homo sapiens, UniProt O14842); experiment: GPR40 Inositol Phosphate Turnover (IP1) Assay; assay type: cell-based; design: expressed in transfected cells; host or cells: HEK cells stably expressing the aequorin reporter
T1 sequence (O14842 whole entry): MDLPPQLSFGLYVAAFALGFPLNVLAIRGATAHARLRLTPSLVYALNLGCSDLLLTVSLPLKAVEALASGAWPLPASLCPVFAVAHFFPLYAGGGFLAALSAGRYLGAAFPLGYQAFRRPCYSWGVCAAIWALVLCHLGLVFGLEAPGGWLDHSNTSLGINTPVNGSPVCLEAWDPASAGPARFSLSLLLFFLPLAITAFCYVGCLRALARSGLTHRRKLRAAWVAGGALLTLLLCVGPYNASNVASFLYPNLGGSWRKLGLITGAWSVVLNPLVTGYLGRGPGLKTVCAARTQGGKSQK

[2] = target: KV11.1 ion channel (hERG) (Homo sapiens, UniProt Q12809); experiment: Binding to ion channel Kv11.1 (hERG)
Sequence of KV11.1 ion channel (hERG) (Q12809 whole entry): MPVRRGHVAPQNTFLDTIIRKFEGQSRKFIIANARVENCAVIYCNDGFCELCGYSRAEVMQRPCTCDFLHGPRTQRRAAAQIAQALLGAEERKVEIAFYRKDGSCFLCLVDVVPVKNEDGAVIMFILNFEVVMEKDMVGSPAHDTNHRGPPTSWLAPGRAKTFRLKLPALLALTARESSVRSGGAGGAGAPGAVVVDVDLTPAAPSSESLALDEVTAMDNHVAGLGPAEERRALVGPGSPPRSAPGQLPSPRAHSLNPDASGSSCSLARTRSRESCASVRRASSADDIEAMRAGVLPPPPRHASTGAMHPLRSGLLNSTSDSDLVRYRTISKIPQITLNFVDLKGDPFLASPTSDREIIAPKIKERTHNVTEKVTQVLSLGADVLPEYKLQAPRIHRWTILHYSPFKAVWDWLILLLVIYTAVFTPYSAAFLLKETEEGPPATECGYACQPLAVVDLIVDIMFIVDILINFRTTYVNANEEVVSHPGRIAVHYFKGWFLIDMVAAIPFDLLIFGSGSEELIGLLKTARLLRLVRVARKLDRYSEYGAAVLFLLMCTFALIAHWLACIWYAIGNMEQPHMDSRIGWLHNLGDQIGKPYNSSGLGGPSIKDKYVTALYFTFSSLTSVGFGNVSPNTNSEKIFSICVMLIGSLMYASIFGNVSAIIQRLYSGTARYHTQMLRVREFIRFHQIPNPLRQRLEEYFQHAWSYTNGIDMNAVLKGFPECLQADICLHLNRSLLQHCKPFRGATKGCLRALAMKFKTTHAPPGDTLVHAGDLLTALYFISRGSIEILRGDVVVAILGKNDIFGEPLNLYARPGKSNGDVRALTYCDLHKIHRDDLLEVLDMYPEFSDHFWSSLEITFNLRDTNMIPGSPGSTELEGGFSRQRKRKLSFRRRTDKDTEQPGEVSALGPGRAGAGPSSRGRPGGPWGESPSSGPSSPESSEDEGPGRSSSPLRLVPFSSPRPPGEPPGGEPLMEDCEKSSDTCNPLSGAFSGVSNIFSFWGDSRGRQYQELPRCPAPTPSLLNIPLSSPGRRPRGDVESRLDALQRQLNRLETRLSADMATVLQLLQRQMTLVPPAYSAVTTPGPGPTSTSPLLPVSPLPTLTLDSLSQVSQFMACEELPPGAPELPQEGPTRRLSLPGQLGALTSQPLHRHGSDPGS

hGPR40 [3] = target: T1, hGPR40; experiment: GPR40 FLIPR assay (agonist-induced calcium mobilization); assay type: cell-based; design: expressed in transfected cells; host or cells: CHO cells stably expressing NFAT BLA (beta-lactamase); details: GPR40/CHO NFAT BLA cells;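 also: calcium mobilization in the cells read as fluorescence of fluo-4 AM loaded cells on FLIPR after compound addition, cells preloaded with dye 100 min at room temperature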
[4] = +0% human serum (Table A), read-out: Human GPR40 IP1, EC50, +0% human serum
[5] = +100% human serum (Table A), read-out: Human GPR40 IP1, EC50, +100% human serum
[6] = HEK cells stably expressing human GPR40, 0% serum, read-out: hGPR40 IP1 EC50 (0% serum)

Structure (SMILES) | solubility (Solubility in PBS pH 7) [µM] | pEC50 (hGPR40 [1]; [4]) | pEC50 (hGPR40 [1]; [5]) | pKi [2] | pEC50 (hGPR40 [1]; [6]) | pEC50 (hGPR40 [3])
Cc1cc(OCC2(C)COC2)cc(C)c1-c1cccc(COc2cc3c(cn2)[C@H]2[C@@H](C3)[C@@H]2C(=O)O)c1 (single isomer, unassigned) [Compound A-2] | 118 (≈ 57.3 µg/mL) | 7.74 | 6.70 |  |  | 
Cc1cc(OCC2(C)COC2)cc(C)c1-c1ccc(F)c(COc2cc3c(cn2)[C@H]2[C@@H](C3)[C@@H]2C(=O)O)c1 (single isomer, unassigned) [Compound A-3] | 107 (≈ 53.9 µg/mL) | 8.05 | 7.09 | 4.40 |  | 
Cc1cc(CCCC(C)(C)O)cc(C)c1-c1ccc(F)c(COc2cc3c(cn2)[C@H]2[C@@H](C3)[C@@H]2C(=O)O)c1 (single isomer, unassigned) [Compound A-4] | 143 (≈ 72 µg/mL) | 8.30 | 6.91 | 5.12 |  | 
Cc1nc(N2CCC(NS(C)(=O)=O)C2)ccc1-c1ccc(F)c(COc2cc3c(cn2)C2C(C3)C2C(=O)O)c1 (stereo not drawn) [Compound 31-12, 3-((2-fluoro-5-(2-methyl-6-(3-(methylsulfonamido)-pyrrolidin-1-yl)pyridin-3-yl)benzyl)oxy)-5,5a,6,6a-tetrahydrocyclopropa[4,5]cyclopenta[1,2-c]pyridine-6-carboxylic acid] |  |  |  |  | 7.29 | 7.36
Cc1nc(N2CCN(S(C)(=O)=O)CC2)ccc1-c1ccc(F)c(COc2cc3c(cn2)[C@H]2[C@@H](C3)[C@@H]2C(=O)O)c1 [Compound 31-13, (5aR,6S,6aS)-3-((2-fluoro-5-(2-methyl-6-(4-(methylsulfonyl)piperazin-1-yl)pyridin-3-yl)benzyl)oxy)-5,5a,6,6a-tetrahydrocyclopropa[4,5]cyclopenta[1,2-c]pyridine-6-carboxylic acid] |  |  |  |  | 7.49 | 7.16
CCc1nc2ccc(F)c(F)c2n1-c1cccc(COc2cc3c(cn2)[C@H]2[C@@H](C3)[C@@H]2C(=O)O)c1C [Compound 32-9, (5aR,6S,6aS)-3-((3-(2-ethyl-6,7-difluoro-1H-benzo[d]imidazol-1-yl)-2-methylbenzyl)oxy)-5,5a,6,6a-tetrahydrocyclopropa[4,5]cyclopenta[1,2-c]pyridine-6-carboxylic acid] |  |  |  |  | 8.31 | 7.52
Cc1cccc(C)c1-c1cccc(COc2cc3c(cn2)[C@H]2[C@@H](C3)[C@@H]2C(=O)O)c1C [Compound A-1] | 73 (≈ 29.2 µg/mL) | 8.22 | 7.09 | 4.40 |  | 
Cc1cccc(C)c1-c1cccc(COc2ccc3c(c2)C[C@H]2[C@H](C(=O)O)[C@@H]32)c1C [Compound B-1, reference compound] | 56 (≈ 22.3 µg/mL) | 7.16 | 6.49 | 5.22 |  | 
Cc1cc(OCC2(C)COC2)cc(C)c1-c1cccc(COc2ccc3c(c2)C[C@H]2[C@H](C(=O)O)[C@@H]32)c1 [Compound B-2, reference compound] | 21 (≈ 10.2 µg/mL) | 7.15 | 6.09 | 5.07 |  | 
Cc1cc(OCC2(C)COC2)cc(C)c1-c1ccc(F)c(COc2ccc3c(c2)C[C@H]2[C@H](C(=O)O)[C@@H]32)c1 [Compound B-3, reference compound] | 49 (≈ 24.6 µg/mL) | 7.51 | 6.54 | 5.11 |  | 
Cc1cc(CCCC(C)(C)O)cc(C)c1-c1ccc(F)c(COc2ccc3c(c2)C[C@H]2[C@H](C(=O)O)[C@@H]32)c1 [Compound B-4, reference compound] | 66 (≈ 33.2 µg/mL) | 7.00 | 6.46 |  |  | 
